The source of these data is patent US5231100A, “Antineoplastic modified imidazoacridines” (British Technology Group Limited, priority 1991, dated 1993).

Where two headings read alike, the source gives them in different places.

Test [1] deals with mouse L1210 leukemia cells. The test is described as follows: In vitro cytotoxicity, 48 h growth inhibition (cell protein content). It is filed as cell-based. How it is done: The mouse L1210 leukemia cells (RPM1, USA) are grown in RPM1 1640 medium supplemented with 5% fetal calf serum and penicillin (1,000,000 units litre) plus streptomycin (100 mg/litre) in controlled air-5% CO2 humidified atmosphere at 37° C. L1210 mouse leukemia cells are seeded at a density of 5.10^4 cells/ml. The tested compounds after being dissolved in 50% ethanol are added, at four different concentrations, to the cell suspensions. […] 1974, 24, 1971.

For test [2], the system named is P388 lymphotic leukemia. The test is described as follows: In vivo antileukemic evaluation, P388 leukemia in BDF1 mice. The method, then: BDF1 mice are injected ip with 10^6 P388 lymphotic leukemia cells on day O and treated ip on days 1-5 in accordance with the protocols described by the National Cancer Institute: Geran, R. I.; Greenberg, R. H.; MacDonald, M. M.; Schumacher, A. M.; Abbot, B. J. Cancer Chemother, Re., Part 3, 1972,3,1. The mean survival time (MST) for each treatment group (eight mice) is calculated and the percent of T/C was determined by using the following formula: % T/C=(MST treated)/(MST control) 100.

Setting [3] is: L1210 cells, 48 h, 50% growth inhibition, read-out: in vitro IC50.
[4] abbreviates: L1210 cells, 48 h, 50% growth inhibition, read-out: in vitro IC50 (μg/ml).
The mark [5] stands for this setting: P388 ip, treated ip days 1-5, at opt dose, first or only value.
The mark [6] stands for this setting: P388 ip, treated ip days 1-5, at opt dose, repeated independent multidose assay (footnote c).

Take `CCN(CC)CCNc1ccc2ncn3c4ccc(O)cc4c(=O)c1c23` [Example 11]: the IC50 in test [1] (setting [3]) amounted to 0.031 µM; in test [1] (setting [4]) it was 0.013 µg/mL. Further, the “% T/C (mean survival time treated/control)” value in test [2] (ip) is given as 211%. In test [2] (ip), the “% T/C (mean survival time treated/control), second value” turned out to be 175%.

As to `CCN(CC)CCNc1ccc2ncn3c4ccc(OC)cc4c(=O)c1c23.Cl.Cl` [Example 1, 5-[[2-(Diethylamino)ethyl]amino]-8-methoxyimidazo[4,5,1-de] acridin-6-one Dihydrochloride], the IC50 turned out to be 1.8 µM in test [1] (setting [3]) and 0.78 µg/mL in test [1] (setting [4]). Also, the “% T/C (mean survival time treated/control)” value in test [2] (setting [5]) worked out at 183%. The “% T/C (mean survival time treated/control), second value” in test [2] (setting [6]) came to 209%.

`CCN(CC)CCCNc1ccc2ncn3c4ccc(OC)cc4c(=O)c1c23` [Example 7]: the IC50 in test [1] (setting [3]) was 2.5 µM; in test [1] (setting [4]), 1.1 µg/mL. For the same compound, the “% T/C (mean survival time treated/control)” value in test [2] (setting [5]) is recorded as 142%.

In the case of `Cc1nc2ccc(NCCN(C)C)c3c(=O)c4cc(O)ccc4n1c23` [Example 10], the IC50 was 0.135 µM in test [1] (setting [3]) and 0.06 µg/mL in test [1] (setting [4]). The “% T/C (mean survival time treated/control)” value in test [2] (setting [5]) was 200%. Besides, in test [2] (setting [6]), the “% T/C (mean survival time treated/control), second value” was 250%.

On to `COc1ccc2c(c1)c(=O)c1c(NCCN(C)C)ccc3ncn2c31` [Example 2], for which the IC50 in test [1] (L1210, 48 h, read-out: in vitro IC50 (μM)) was 1.6 µM; in test [1] (L1210, 48 h, read-out: in vitro IC50 (μg/ml)), 0.65 µg/mL. In addition, the “% T/C (mean survival time treated/control)” value in test [2] (setting [5]) is reported as 177%. Moreover, the “% T/C (mean survival time treated/control), second value” in test [2] (setting [6]) amounted to 136%.

For the compound `CCN(CC)CCCNc1ccc2ncn3c4ccc(O)cc4c(=O)c1c23` [Example 15], the values for the IC50 in test [1] (setting [3]) and in test [1] (setting [4]) were 0.18 µM and 0.08 µg/mL, respectively. The “% T/C (mean survival time treated/control)” value in test [2] (setting [5]) is 309%. Further, the “% T/C (mean survival time treated/control), second value” in test [2] (setting [6]) is on record as 230%.

For `CN(C)CCNc1ccc2ncn3c4ccc(O)cc4c(=O)c1c23` [Example 9], the IC50 came out at 0.048 µM in test [1] (setting [3]) and 0.02 µg/mL in test [1] (setting [4]). Further, the “% T/C (mean survival time treated/control)” value in test [2] (setting [5]) came to 210%. In addition, the “% T/C (mean survival time treated/control), second value” in test [2] (setting [6]) was determined as 210%.

For `Cc1nc2ccc(NCCCN(C)C)c3c(=O)c4cc(O)ccc4n1c23` [Example 14], the IC50 was 0.23 µM in test [1] (setting [3]) and 0.1 µg/mL in test [1] (setting [4]). In test [2] (setting [5]), the “% T/C (mean survival time treated/control)” value is given as 255%.

Turning to `CN(C)CCCNc1ccc2ncn3c4ccc(O)cc4c(=O)c1c23` [Example 13], the IC50 is 0.034 µM in test [1] (setting [3]) and 0.014 µg/mL in test [1] (setting [4]). In test [2] (setting [5]), the “% T/C (mean survival time treated/control)” value worked out at 183%.

`COc1ccc2c(c1)c(=O)c1c(NCCCN(C)C)ccc3nc(C)n2c31` [Example 6]: the IC50 in test [1] (setting [3]) was found to be 3.2 µM; in test [1] (setting [4]) it was 1.4 µg/mL. Moreover, the “% T/C (mean survival time treated/control)” value in test [2] (setting [5]) stood at 136%.

As for `CCN(CC)CCCNc1ccc2nc(C)n3c4ccc(O)cc4c(=O)c1c23` [Example 16], the IC50 came out at 0.89 µM in test [1] (setting [3]) and 0.4 µg/mL in test [1] (setting [4]). Besides, in test [2] (setting [5]), the “% T/C (mean survival time treated/control)” value is 150%. Further, in test [2] (setting [6]), the “% T/C (mean survival time treated/control), second value” stood at 155%.

For `COc1ccc2c(c1)c(=O)c1c(NCCN(C)C)ccc3nc(C)n2c31` [Example 3], the figures for the IC50 in test [1] (setting [3]) and in test [1] (setting [4]) were 0.77 µM and 0.34 µg/mL, respectively. Moreover, the “% T/C (mean survival time treated/control)” value in test [2] (setting [5]) is 127%.

With `CCN(CC)CCNc1ccc2nc(C)n3c4ccc(O)cc4c(=O)c1c23` [Example 12], the IC50 worked out at 0.25 µM in test [1] (setting [3]) and 0.11 µg/mL in test [1] (setting [4]). In test [2] (setting [5]), the “% T/C (mean survival time treated/control)” value came to 280%. For the same compound, in test [2] (setting [6]), the “% T/C (mean survival time treated/control), second value” is given as 290%.

With `COc1ccc2c(c1)c(=O)c1c(NCCCN(C)C)ccc3ncn2c31` [Example 5], the IC50 in test [1] (setting [3]) is 8.25 µM; in test [1] (setting [4]), 3.5 µg/mL. The “% T/C (mean survival time treated/control)” value in test [2] (setting [5]) amounted to 164%.

`CCN(CC)CCCNc1ccc2nc(C)n3c4ccc(OC)cc4c(=O)c1c23` [Example 8]: the IC50 in test [1] (setting [3]) was found to be 1.4 µM; in test [1] (setting [4]), 0.7 µg/mL. Further, in test [2] (setting [5]), the “% T/C (mean survival time treated/control)” value amounted to 108%.

For the compound `CCN(CC)CCNc1ccc2nc(C)n3c4ccc(OC)cc4c(=O)c1c23` [Example 4], the values for the IC50 in test [1] (setting [3]) and in test [1] (setting [4]) were 1.55 µM and 0.7 µg/mL, respectively. Also, the “% T/C (mean survival time treated/control)” value in test [2] (setting [5]) is 136%. Further, the “% T/C (mean survival time treated/control), second value” in test [2] (setting [6]) worked out at 120%.
